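Grown in 96-well plates, cells were treated for 48 hours with each compound at five concentrations. Insufficient inhibition: endpoint recorded as highest concentration tested. Here, GI50 denotes the concentration required for 50% inhibition of growth.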 Activity calls are given as the source filed them. Cut-off read from the data, not from the text of the source: active = GI50 up to about 1.1 µM and inactive = higher.
Key:
Assay in all cases: growth of human tumour cells (NCI), 48 h
786-0 = system: 786-0
BT-549 = system: BT-549
CAKI-1 = system: CAKI-1
HCT-15 = system: HCT-15
HL-60 = system: HL-60
Hs-578T = system: Hs-578T
K562 = system: K562
MDA-N = system: MDA-N
Malme-3M = system: Malme-3M
NCI-H23 = system: NCI-H23
OVCAR-3 = system: OVCAR-3
OVCAR-4 = system: OVCAR-4
OVCAR-8 = system: OVCAR-8
RXF 393 = system: RXF 393
SF-539 = system: SF-539
SK-MEL-28 = system: SK-MEL-28
SK-OV-3 = system: SK-OV-3
SNB-19 = system: SNB-19
TK-10 = system: TK-10
U-251 = system: U-251

SMILES	GI50 (786-0)	GI50 (BT-549)	GI50 (CAKI-1)	GI50 (HCT-15) [µM]	GI50 (HL-60)	GI50 (Hs-578T)	GI50 (K562)	GI50 (MDA-N)	GI50 (Malme-3M)	GI50 (NCI-H23)	GI50 (OVCAR-3)	GI50 (OVCAR-4)	GI50 (OVCAR-8)	GI50 (RXF 393)	GI50 (SF-539)	GI50 (SK-MEL-28)	GI50 (SK-OV-3)	GI50 (SNB-19)	GI50 (TK-10)	GI50 (U-251)
CC(C)(C)OCC1NC(=O)[C@@H]2Cc3c([nH]c4ccccc34)C(c3ccccc3)N2C1=O (stereo not given in full)	> 50 µM (inactive)	> 50 µM (inactive)	> 50 µM (inactive)	> 50	> 26.2 µM (inactive)	> 50 µM (inactive)	> 30.1 µM (inactive)	> 50 µM (inactive)	> 50 µM (inactive)	> 50 µM (inactive)	> 50 µM (inactive)	> 50 µM (inactive)	> 50 µM (inactive)	> 50 µM (inactive)	30.1 µM (inactive)	> 50 µM (inactive)	> 50 µM (inactive)	> 50 µM (inactive)	> 50 µM (inactive)	> 50 µM (inactive)
Cc1ccc(C(=O)Cc2nc3ncccc3[nH]c2=O)cc1	22.5 µM (inactive)	43.7 µM (inactive)	65.5 µM (inactive)	41.2	> 100 µM (inactive)	13.3 µM (inactive)	> 100 µM (inactive)	74.8 µM (inactive)	23.2 µM (inactive)	9.29 µM (inactive)	40.1 µM (inactive)	25.7 µM (inactive)	23.6 µM (inactive)	44.2 µM (inactive)	30.5 µM (inactive)	32.8 µM (inactive)	23 µM (inactive)	6.15 µM (inactive)	29.9 µM (inactive)	22.5 µM (inactive)
CCC(NC1=NCCO1)c1cccs1 (stereo not given)	15.3 µM (inactive)	20.1 µM (inactive)	17.2 µM (inactive)	15.6	18.6 µM (inactive)	11.2 µM (inactive)	5.55 µM (inactive)	14.6 µM (inactive)	13 µM (inactive)	16.9 µM (inactive)	16.9 µM (inactive)	23.9 µM (inactive)	16.7 µM (inactive)	19 µM (inactive)	15.5 µM (inactive)	15.6 µM (inactive)	13.8 µM (inactive)	16.3 µM (inactive)	15.8 µM (inactive)	13.5 µM (inactive)
CC(=O)Nc1n[n+]([O-])c2cc(C)ccc2[n+]1[O-]	3.26 µM (inactive)	3.39 µM (inactive)	2.52 µM (inactive)	1.7	1.92 µM (inactive)	6.61 µM (inactive)	1.94 µM (inactive)	3.56 µM (inactive)	3.18 µM (inactive)	2.19 µM (inactive)	2.4 µM (inactive)	4.38 µM (inactive)	2.96 µM (inactive)	5.75 µM (inactive)	1.99 µM (inactive)	17 µM (inactive)	5.86 µM (inactive)	4.98 µM (inactive)	22.8 µM (inactive)	2.92 µM (inactive)
Clc1nc2c(-c3cccs3)ncnc2n1Cc1ccccc1	19.5 µM (inactive)	25.8 µM (inactive)	3.08 µM (inactive)	32.1	24.5 µM (inactive)	22.8 µM (inactive)	57.3 µM (inactive)	42.6 µM (inactive)	36.5 µM (inactive)	46.1 µM (inactive)	23 µM (inactive)	44.9 µM (inactive)	49.9 µM (inactive)	17 µM (inactive)	40 µM (inactive)	61.5 µM (inactive)	38.9 µM (inactive)	27.4 µM (inactive)	23 µM (inactive)	38.5 µM (inactive)
O=C(O)[C@H](CCC[C@H]1C(=O)O[C@H](c2ccccc2)[C@H](c2ccccc2)N1C(=O)OCc1ccccc1)N[C@@H](c1ccccc1)[C@H](O)c1ccccc1	32.5 µM (inactive)	27 µM (inactive)	> 100 µM (inactive)	> 100	17.4 µM (inactive)	25.4 µM (inactive)	36.8 µM (inactive)	21.7 µM (inactive)	21.2 µM (inactive)	28.4 µM (inactive)	23.7 µM (inactive)	32.2 µM (inactive)	20.5 µM (inactive)	22.6 µM (inactive)	18.6 µM (inactive)	19.8 µM (inactive)	61.8 µM (inactive)	30.3 µM (inactive)	40.7 µM (inactive)	16 µM (inactive)
Cc1cn2cc(-c3cccs3)nc2s1	> 100 µM (inactive)	> 100 µM (inactive)	> 100 µM (inactive)	> 71.9	55.8 µM (inactive)	> 100 µM (inactive)	99.3 µM (inactive)	> 72.6 µM (inactive)	> 100 µM (inactive)	> 75.5 µM (inactive)	> 100 µM (inactive)	> 100 µM (inactive)	> 100 µM (inactive)	> 100 µM (inactive)	> 100 µM (inactive)	> 100 µM (inactive)	> 100 µM (inactive)	> 100 µM (inactive)	> 73.3 µM (inactive)	> 100 µM (inactive)
COC(=O)c1sc2c(Cl)c(Cl)sc2c1Cl	43.8 µM (inactive)	> 100 µM (inactive)	> 100 µM (inactive)	> 100	> 100 µM (inactive)	> 100 µM (inactive)	> 100 µM (inactive)	> 100 µM (inactive)	> 100 µM (inactive)	> 100 µM (inactive)	93.8 µM (inactive)	> 100 µM (inactive)	> 100 µM (inactive)	> 100 µM (inactive)	66.7 µM (inactive)	> 100 µM (inactive)	> 100 µM (inactive)	> 100 µM (inactive)	24.2 µM (inactive)	97.5 µM (inactive)
COC(=O)c1ccc(NCC2=CC(=O)c3ccccc3C2=O)cc1	19.3 µM (inactive)	20 µM (inactive)	11.6 µM (inactive)	14.5	3.1 µM (inactive)	28.6 µM (inactive)	3.44 µM (inactive)	9.23 µM (inactive)	5.81 µM (inactive)	14.5 µM (inactive)	12.9 µM (inactive)	14.2 µM (inactive)	29.8 µM (inactive)	22 µM (inactive)	23.4 µM (inactive)	17.5 µM (inactive)	16.1 µM (inactive)	31.4 µM (inactive)	22.2 µM (inactive)	22.9 µM (inactive)
COC(=O)n1c(=O)nc2c3c(ncn21)Oc1c(c(-c2ccccc2)nn1-c1ccccc1)C3c1ccc(Cl)cc1 (stereo not given)	1.49 µM (inactive)	3.87 µM (inactive)	1.63 µM (inactive)	1.6	1.51 µM (inactive)	1.17 µM (inactive)	1.62 µM (inactive)	1.66 µM (inactive)	1.04 µM (active)	2.03 µM (inactive)	1.42 µM (inactive)	2.39 µM (inactive)	1.63 µM (inactive)	1.63 µM (inactive)	1.76 µM (inactive)	1.79 µM (inactive)	3.29 µM (inactive)	1.75 µM (inactive)	1.79 µM (inactive)	1.71 µM (inactive)
COc1ccc2c(c1)/c(=C/C#N)c1c3ccccc3[n+](C)n21	3.95 µM (inactive)	9.08 µM (inactive)	16.1 µM (inactive)	20.1	3.05 µM (inactive)	8.55 µM (inactive)	8.69 µM (inactive)	5.43 µM (inactive)	5.21 µM (inactive)	5.3 µM (inactive)	1.34 µM (inactive)	4.37 µM (inactive)	11.4 µM (inactive)	10.9 µM (inactive)	0.767 µM (active)	5.58 µM (inactive)	15.5 µM (inactive)	7.16 µM (inactive)	6.9 µM (inactive)	2.75 µM (inactive)
COc1cccc2c1Cc1cc(-c3ccccc3)[n+](C)n1-2	7.24 µM (inactive)	22.5 µM (inactive)	66.8 µM (inactive)	31.3	4.06 µM (inactive)	25.1 µM (inactive)	3.26 µM (inactive)	11.9 µM (inactive)	10.3 µM (inactive)	9.77 µM (inactive)	2.92 µM (inactive)	3.19 µM (inactive)	6.84 µM (inactive)	19 µM (inactive)	5.4 µM (inactive)	46.1 µM (inactive)	33.2 µM (inactive)	28.9 µM (inactive)	28.8 µM (inactive)	5.36 µM (inactive)
COc1ccc(C2SC(C)C(=O)N2c2nc(-c3nc(-c4ccc(Cl)cc4)cs3)cs2)cc1 (stereo not given)	> 100 µM (inactive)	> 100 µM (inactive)	> 100 µM (inactive)	> 100	94.4 µM (inactive)	> 100 µM (inactive)	> 100 µM (inactive)	> 100 µM (inactive)	> 100 µM (inactive)	> 100 µM (inactive)	> 100 µM (inactive)	> 100 µM (inactive)	> 100 µM (inactive)	> 100 µM (inactive)	> 100 µM (inactive)	> 10 µM (inactive)	> 100 µM (inactive)	> 100 µM (inactive)	> 100 µM (inactive)	84.7 µM (inactive)
COc1cc2c3cc1Oc1c(O)c(OC)cc4c1[C@H](Cc1ccc(cc1)Oc1cc(ccc1O)C[C@H]3N(C)CC2)N(C)CC4	6.52 µM (inactive)	12.9 µM (inactive)	25.9 µM (inactive)	9.29	6.68 µM (inactive)	20 µM (inactive)	2.56 µM (inactive)	10.7 µM (inactive)	17.3 µM (inactive)	22.4 µM (inactive)	10.2 µM (inactive)	16.9 µM (inactive)	14.9 µM (inactive)	3.63 µM (inactive)	3.23 µM (inactive)	19.2 µM (inactive)	25.4 µM (inactive)	20.9 µM (inactive)	13.6 µM (inactive)	9.48 µM (inactive)

Source: ChEMBL document CHEMBL1201862, “PubChem BioAssay data set” (2004)
